# Key:
# Type in all cases: in vivo
# Musca domestica = Musca domestica - test; conditions: 100 ppm, adult houseflies, after 2 days
# Experimental: (§1) Solvent: dimethyl sulphoxide
# (§2) To produce an appropriate active ingredient formulation, 10 mg of active ingredient are mixed with 0.5 ml of dimethyl sulphoxide, and the concentrate is diluted with water to the desired concentration.
# Vessels containing a sponge treated with sugar solution and the active ingredient formulation of the desired concentration are populated with 10 adult houseflies (Musca domestica).
# After 2 days, the kill in % is determined 100% means that all of the flies have been killed; 0% means that none of the flies have been killed.
# Ctenocephalides felis [1] = assay: Ctenocephalides felis - in vitro contact tests with fleas (CTECFE); conditions: 1 μg/cm^2, adult fleas, after 48 h
# Experimental: For the coating of the test tubes, 9 mg of active ingredient are first dissolved in 1 ml of acetone p.a. and then diluted to the desired concentration with acetone p.a. 250 μl of the solution are distributed homogeneously on the inner walls and base of a test tube (25 ml crimp top vial (Fisher Scientific, Order No. 320 55 60) by turning and rocking on a “Rock ‘n’ Roller” (Model L202, Labinco; rocking rotation at 30 rpm in a fume hood for 2 h). With 900 ppm active ingredient solution and internal surface area 44.7 cm^2, given homogeneous distribution, an area-based dose of 5 μg/cm^2 is achieved.
# Preparation examples for the inventive halogen-substituted compounds of the formula (I) are tested for their contact efficiency with ectoparasitic insects (cat fleas here). For this purpose, crimp top vials are coated with 250 μl of an acetone solution of the active ingredient as described above. After the solvent has evaporated off, the tubes are populated with 5-10 fleas (adult Ctenocephalides felis), sealed with a perforated plastic lid and incubated in a horizontal position at room temperature and ambient humidity. After 48 h, efficacy (knockdown and mortality) and mortality are determined To this end, the test tubes are stood upright and the fleas are knocked to the base of the tube. […]
# Spodoptera frugiperda = Spodoptera frugiperda - spray test; conditions: 100 g/ha, maize leaf discs, after 7 days
# Experimental: (§3) Solvent: 78.0 parts by weight of acetone
# (§4) • 1.5 parts by weight of dimethylformamide Emulsifier: alkylaryl polyglycol ether
# (§5) To produce an appropriate active ingredient formulation, 1 part by weight of active ingredient is dissolved using the specified parts by weight of solvent and made up with water containing an emulsifier concentration of 1000 ppm until the desired concentration is attained. To produce further test concentrations, the preparation is diluted with emulsifier-containing water.
# Leaf discs of maize (Zea mays) are sprayed with an active ingredient formulation of the desired concentration and, after drying, populated with caterpillars of the armyworm (Spodoptera frugiperda).
# After 7 days, efficacy in % is determined. 100% means that all the caterpillars have been killed; 0% means that no caterpillars have been killed.
# Phaedon cochleariae = Phaedon cochleariae - spray test; conditions: 100 g/ha, Chinese cabbage leaf discs, after 7 days
# Experimental: as §3, §4, §5
# Discs of Chinese cabbage leaves (Brassica pekinensis) are sprayed with an active ingredient formulation of the desired concentration and, after drying, populated with larvae of the mustard beetle (Phaedon cochleariae).
# After 7 days, efficacy in % is determined 100% means that all the beetle larvae have been killed; 0% means that no beetle larvae have been killed.
# [2] = test system: Aedes aegypti strain MONHEIM; assay: Aedes test (AEDSAE surface treatment); conditions: read-out: efficacy (mortality in %)
# Experimental: Solvent: acetone+2000 ppm rapeseed oil methyl ester (RME)
# To produce an appropriate active ingredient formulation, the active ingredient is dissolved in the solvent (2 mg/ml). The active ingredient formulation is pipetted onto a glazed tile and, after it has dried off, adult mosquitoes of the species Aedes aegypti strain MONHEIM are placed onto the treated tile. The exposure time is 30 minutes.
# 24 hours after contact with the treated surface, mortality in % is determined 100% means that all mosquitoes have been killed; 0% means that none of the mosquitoes have been killed.
# Ctenocephalides felis [3] = assay: Ctenocephalides felis - in vitro contact tests with adult cat fleas; conditions: 5 μg/cm^2, adult cat fleas, after 48 h
# Experimental: For the coating of the test tubes, 9 mg of active ingredient are first dissolved in 1 ml of acetone p.a. and then diluted to the desired concentration with acetone p.a. 250 μl of the solution are distributed homogeneously on the inner walls and base of a 25 ml test tube by turning and rocking on an orbital shaker (rocking rotation at 30 rpm for 2 h). With 900 ppm active ingredient solution and internal surface area 44.7 cm^2, given homogeneous distribution, an area-based dose of 5 μg/cm^2 is achieved.
# After the solvent has evaporated off, the tubes are populated with 5-10 adult cat fleas (Ctenocephalides felis), sealed with a perforated plastic lid and incubated in a horizontal position at room temperature and ambient humidity. After 48 h, efficacy is determined. To this end, the test tubes are stood upright and the fleas are knocked to the base of the tube. Fleas which remain motionless at the base or move in an uncoordinated manner are considered to be dead or moribund.
# 100% efficacy means that all the fleas were dead or moribund. 0% efficacy means that no fleas were harmed.
# Myzus persicae = Myzus persicae - spray test; conditions: 100 g/ha, Chinese cabbage leaf discs, after 6 days
# Experimental: Solvent: 78 parts by weight of acetone
# as §4, §5
# Discs of Chinese cabbage leaves (Brassica pekinensis) infested by all stages of the green peach aphid (Myzus persicae) are sprayed with an active ingredient formulation of the desired concentration.
# After 6 days, efficacy in % is determined. 100% means that all the aphids have been killed; 0% means that none of the aphids have been killed.
# Lucilia cuprina = Lucilia cuprina - test; conditions: 100 ppm, L1 larvae, after 2 days
# Experimental: as §1, §2
# About 20 L1 larvae of the Australian sheep blowfly (Lucilia cuprina) are transferred into a test vessel containing minced horsemeat and the active ingredient preparation of the desired concentration.
# After 2 days, the kill in % is determined 100% means that all the larvae have been killed; 0% means that none of the larvae have been killed.
# Amblyomma hebraeum = assay: Amblyomma hebaraeum - test (tick nymphs, immersion); conditions: 100 ppm, tick nymphs immersed one minute, after 42 days
# Experimental: as §1, §2
# Tick nymphs (Amblyomma hebraeum) are placed into perforated plastic beakers and immersed in the desired concentration for one minute. The ticks are transferred on filter paper into a Petri dish and stored in a climate-controlled cabinet.
# After 42 days, the kill in % is determined 100% means that all of the ticks have been killed; 0% means that none of the ticks have been killed.
# Tetranychus urticae = Tetranychus urticae - spray test, OP-resistant; conditions: 100 g/ha, bean leaf discs, after 6 days
# Experimental: as §3, §4, §5
# Discs of bean leaves (Phaseolus vulgaris) infested by all stages of the greenhouse red spider mite (Tetranychus urticae) are sprayed with an active ingredient formulation of the desired concentration.
# After 6 days, efficacy in % is determined 100% means that all the spider mites have been killed; 0% means that none of the spider mites have been killed.
structure (smiles),measurement,setting,value
"Cc1cc(C(F)(C(F)(F)F)C(F)(F)F)cc(C)c1-c1cn(-c2ccc(Cl)c(C(=O)NC3CC3)c2)nn1 [I-T48-1, 2-chloro-N-cyclopropyl-5-[4-[2,6-dimethyl-4-[1,2,2,2-tetrafluoro-1-(trifluoromethyl)ethyl]phenyl]triazol-1-yl]benzamide]",efficacy (kill in %),Musca domestica,100%
same,efficacy (moribund/knocked down or dead),Ctenocephalides felis [1],100%
same,efficacy (caterpillars killed),Spodoptera frugiperda,100%
same,efficacy (beetle larvae killed),Phaedon cochleariae,100%
same,mortality at 20 mg/m2,[2],90 to 100%
same,mortality at 100 mg/m2,[2],90 to 100%
same,efficacy (dead or moribund),Ctenocephalides felis [3],100%
same,efficacy (aphids killed),Myzus persicae,100%
same,efficacy (kill in %),Lucilia cuprina,100%
same,efficacy (kill in %),Amblyomma hebraeum,100%
same,efficacy (spider mites killed),Tetranychus urticae,100%
